We go through 15 molecules from BindingDB's records for doi:10.1016/j.bmcl.2004.08.039 (Glaxosmithkline, 2004).

The term Ki denotes the dissociation constant of the complex between target and ligand, obtained from inhibition or displacement. Lower therefore signals tighter binding.

In the test the target is T1, Dimer of Gag-Pol polyprotein [501-599,Q508K,L534I,L564I,C568A,C596A] (Human immunodeficiency virus 1, UniProt P03367, C568A/C596A/L534I/L564I/Q508K).
T1 construct: 501-599
In words: Protease Inhibition Assay. Particulars: pH 6.4; 25 °C. The protocol: The Ki values were determined using fluorogenic substrate, 2-(aminobenzoyl)-Thr-Ile-Nle-Phe(p-NO2)-Gln-ArgNH2. A standard curve relating changes in fluorescent intensity to changes in concentration of product was used to convert fluorescent changes into molar velocities. The amount of cleavage was determined by HPLC.

SMILES strings stand for the structures.

`O=C(N[C@H]1c2ccccc2C[C@H]1O)[C@H](Cc1ccccc1)C[C@H](O)CN1C(=O)C(Cc2ccncc2)C[C@@H]1Cc1ccccc1` (stereo partly drawn) [(2R,4S)-2-benzyl-5-[(5R)-5-benzyl-2-oxo-3-(pyridin-4-ylmethyl)pyrrolidin-1-yl]-4-hydroxy-N-[(1S,2R)-2-hydroxy-2,3-dihydro-1H-inden-1-yl]pentanamide] displayed an inhibition constant Ki of 0.31 nM.

Take `O=C(N[C@H]1c2ccccc2C[C@H]1O)[C@H](Cc1ccccc1)C[C@H](O)CN1C(=O)[C@@H](Cc2cccc(O)c2)C[C@@H]1Cc1ccccc1` [(2R,4S)-2-benzyl-5-[(3S,5R)-5-benzyl-3-[(3-hydroxyphenyl)methyl]-2-oxopyrrolidin-1-yl]-4-hydroxy-N-[(1S,2R)-2-hydroxy-2,3-dihydro-1H-inden-1-yl]pentanamide]: the affinity corresponds to a Ki of 0.05 nM.

`CCOC(=O)CNC(=O)Nc1cccc(C[C@H]2C[C@H](Cc3ccccc3)N(C[C@@H](O)C[C@@H](Cc3ccccc3)C(=O)N[C@H]3c4ccccc4C[C@H]3O)C2=O)c1` [ethyl 2-{[(3-{[(3S,5R)-5-benzyl-1-[(2S,4R)-4-benzyl-2-hydroxy-4-{[(1S,2R)-2-hydroxy-2,3-dihydro-1H-inden-1-yl]carbamoyl}butyl]-2-oxopyrrolidin-3-yl]methyl}phenyl)carbamoyl]amino}acetate] came in with an inhibition constant Ki of 0.1 nM.

Take `N#Cc1cccc(C[C@H]2C[C@H](Cc3ccccc3)N(C[C@@H](O)C[C@@H](Cc3ccccc3)C(=O)N[C@H]3c4ccccc4C[C@H]3O)C2=O)c1` [(2R,4S)-2-benzyl-5-[(3S,5R)-5-benzyl-3-[(3-cyanophenyl)methyl]-2-oxopyrrolidin-1-yl]-4-hydroxy-N-[(1S,2R)-2-hydroxy-2,3-dihydro-1H-inden-1-yl]pentanamide]: the affinity corresponds to a Ki of 0.05 nM.

With `COC(=O)c1cccc(C[C@H]2C[C@H](Cc3ccccc3)N(C[C@@H](O)C[C@@H](Cc3ccccc3)C(=O)N[C@H]3c4ccccc4C[C@H]3O)C2=O)c1` [methyl 3-{[(3S,5R)-5-benzyl-1-[(2S,4R)-4-benzyl-2-hydroxy-4-{[(1S,2R)-2-hydroxy-2,3-dihydro-1H-inden-1-yl]carbamoyl}butyl]-2-oxopyrrolidin-3-yl]methyl}benzoate], the affinity, expressed as Ki, was 0.42 nM.

As for `Nc1cccc(C[C@H]2C[C@H](Cc3ccccc3)N(C[C@@H](O)C[C@@H](Cc3ccccc3)C(=O)N[C@H]3c4ccccc4C[C@H]3O)C2=O)c1` [(2R,4S)-5-[(3S,5R)-3-[(3-aminophenyl)methyl]-5-benzyl-2-oxopyrrolidin-1-yl]-2-benzyl-4-hydroxy-N-[(1S,2R)-2-hydroxy-2,3-dihydro-1H-inden-1-yl]pentanamide], the Ki worked out at 0.1 nM.

Molecule `O=C(NCCOCCO)c1cccc(C[C@H]2C[C@H](Cc3ccccc3)N(C[C@@H](O)C[C@@H](Cc3ccccc3)C(=O)N[C@H]3c4ccccc4C[C@H]3O)C2=O)c1` [3-{[(3S,5R)-5-benzyl-1-[(2S,4R)-4-benzyl-2-hydroxy-4-{[(1S,2R)-2-hydroxy-2,3-dihydro-1H-inden-1-yl]carbamoyl}butyl]-2-oxopyrrolidin-3-yl]methyl}-N-[2-(2-hydroxyethoxy)ethyl]benzamide] showed a Ki of 0.24 nM.

`NC(=O)c1cccc(C[C@H]2C[C@H](Cc3ccccc3)N(C[C@@H](O)C[C@@H](Cc3ccccc3)C(=O)N[C@H]3c4ccccc4C[C@H]3O)C2=O)c1` [3-{[(3S,5R)-5-benzyl-1-[(2S,4R)-4-benzyl-2-hydroxy-4-{[(1S,2R)-2-hydroxy-2,3-dihydro-1H-inden-1-yl]carbamoyl}butyl]-2-oxopyrrolidin-3-yl]methyl}benzamide] displayed a Ki of 0.1 nM.

Regarding `NC(=O)c1cccc(C[C@H]2C[C@H](Cc3ccccc3)N(C[C@@H](O)C[C@@H](Cc3ccc(OCCO)cc3)C(=O)N[C@H]3c4ccccc4C[C@H]3O)C2=O)c1` [3-{[(3S,5R)-5-benzyl-1-[(2S,4R)-2-hydroxy-4-{[(1S,2R)-2-hydroxy-2,3-dihydro-1H-inden-1-yl]carbamoyl}-4-{[4-(2-hydroxyethoxy)phenyl]methyl}butyl]-2-oxopyrrolidin-3-yl]methyl}benzamide], the affinity corresponds to a Ki of 0.05 nM.

On to `N#Cc1ccc(CC2C[C@H](Cc3ccccc3)N(C[C@@H](O)C[C@@H](Cc3ccccc3)C(=O)N[C@H]3c4ccccc4C[C@H]3O)C2=O)cc1` (stereo partly drawn) [(2R,4S)-2-benzyl-5-[(5R)-5-benzyl-3-[(4-cyanophenyl)methyl]-2-oxopyrrolidin-1-yl]-4-hydroxy-N-[(1S,2R)-2-hydroxy-2,3-dihydro-1H-inden-1-yl]pentanamide], for which the inhibition constant Ki was 0.34 nM.

`N#CCOc1cccc(C[C@H]2C[C@H](Cc3ccccc3)N(C[C@@H](O)C[C@@H](Cc3ccccc3)C(=O)N[C@H]3c4ccccc4C[C@H]3O)C2=O)c1` [(2R,4S)-2-benzyl-5-[(3S,5R)-5-benzyl-3-{[3-(cyanomethoxy)phenyl]methyl}-2-oxopyrrolidin-1-yl]-4-hydroxy-N-[(1S,2R)-2-hydroxy-2,3-dihydro-1H-inden-1-yl]pentanamide] had a Ki of 0.08 nM.

On to `CCNC(=O)Nc1cccc(C[C@H]2C[C@H](Cc3ccccc3)N(C[C@@H](O)C[C@@H](Cc3ccccc3)C(=O)N[C@H]3c4ccccc4C[C@H]3O)C2=O)c1` [(2R,4S)-2-benzyl-5-[(3S,5R)-5-benzyl-3-({3-[(ethylcarbamoyl)amino]phenyl}methyl)-2-oxopyrrolidin-1-yl]-4-hydroxy-N-[(1S,2R)-2-hydroxy-2,3-dihydro-1H-inden-1-yl]pentanamide], for which the Ki worked out at 0.2 nM.

Take `Nc1ccc(CC2C[C@H](Cc3ccccc3)N(C[C@@H](O)C[C@@H](Cc3ccccc3)C(=O)N[C@H]3c4ccccc4C[C@H]3O)C2=O)cc1` (stereo partly drawn) [(2R,4S)-5-[(5R)-3-[(4-aminophenyl)methyl]-5-benzyl-2-oxopyrrolidin-1-yl]-2-benzyl-4-hydroxy-N-[(1S,2R)-2-hydroxy-2,3-dihydro-1H-inden-1-yl]pentanamide]: the affinity, expressed as Ki, was 2.3 nM.

`O=C(NCCN1CCOCC1)c1cccc(C[C@H]2C[C@H](Cc3ccccc3)N(C[C@@H](O)C[C@@H](Cc3ccccc3)C(=O)N[C@H]3c4ccccc4C[C@H]3O)C2=O)c1` [3-{[(3S,5R)-5-benzyl-1-[(2S,4R)-4-benzyl-2-hydroxy-4-{[(1S,2R)-2-hydroxy-2,3-dihydro-1H-inden-1-yl]carbamoyl}butyl]-2-oxopyrrolidin-3-yl]methyl}-N-[2-(morpholin-4-yl)ethyl]benzamide] registered a Ki of 0.15 nM.

`NC(=O)COc1cccc(C[C@H]2C[C@H](Cc3ccccc3)N(C[C@@H](O)C[C@@H](Cc3ccccc3)C(=O)N[C@H]3c4ccccc4C[C@H]3O)C2=O)c1` [(2R,4S)-2-benzyl-5-[(3S,5R)-5-benzyl-3-{[3-(carbamoylmethoxy)phenyl]methyl}-2-oxopyrrolidin-1-yl]-4-hydroxy-N-[(1S,2R)-2-hydroxy-2,3-dihydro-1H-inden-1-yl]pentanamide]: the inhibitory constant (Ki) was found to be 0.09 nM.
